Experimental data reported in patent US8217013B2, “Polyene diester antibiotics” (priority 2007, dated 2012).
Like-named read-outs stand apart in the source and are kept apart here.

Experiments:
Test in all cases: Test of antibacterial activity in vitro (bacteria-inhibition zone)
Format in all cases: cell-based
Saccharomyces cerevisiae = settings: for zone of inhibition at 5.6 µg/mL: Saccharomyces cerevisiae, 5.6 μg/ml after conversion; for diameter of the bacteria-inhibition zone, Saccharomyces cerevisiae 0 h / diameter of the bacteria-inhibition zone, Saccharomyces cerevisiae 6 h / diameter of the bacteria-inhibition zone, Saccharomyces cerevisiae 24 h / diameter of the bacteria-inhibition zone, Saccharomyces cerevisiae 48 h: 2.8 μg/ml after conversion
From the text: (§1) Test of Antibacterial Activity In Vitro
(§2) Experiment drugs: the polyene diester compounds prepared by examples 1-12
(§3) Control drugs: amphotericin B (standard product) • mycostatin (standard product) • natamycin (standard product)
2.2 Preparation of Saccharomyces cerevisiae suspension: PHARMACOPOEIA OF THE PEOPLES REPUBLIC OF CHINA, second part, 2005 edition, appendix p 80, p 83.
(§4) Taking appropriate amount of the above mentioned amphotericin B, mycostatin, natamycin and the polyene diester compounds prepared by examples 1-8 and 10-12, dissolving in a little dimethyl sulfoxide respectively, using pH7 phosphate buffer to dilute into solution which is equivalent to contain amphotericin B, mycostatin, natamycin 280 Units per milliliter, taking 1 ml and using pH7 phosphate buffer to quantitatively dilute into solution which is equivalent to contain amphotericin B 1.4 μg/ml and 2.8 μg/ml, and is equivalent to contain 5.6 μg/ml of mycostatin and natamycin.
(§5) In addition, preparing the solution according to the same method, adding 40% defibered sheep serum, using pH7 phosphate buffer to quantitatively dilute into unit solution which is equivalent to contain amphotericin B 1.4 μg/ml and 2.8 μg/ml, and is equivalent to contain 5.6 μg/ml of mycostatin and natamycin. Testing according to PHARMACOPOEIA OF THE PEOPLES REPUBLIC OF CHINA, second part, 2005 edition, appendix XIA The Antibiotics Microorganism Test.
(§6) Medium: Improved Martin Agar Medium, PHARMACOPOEIA OF THE PEOPLES REPUBLIC OF CHINA, second part, 2005 edition, appendix p 84.
(§7) Test method: Double-plate counting method; […] bacteria bed 15 ml to replace the double layers, culture temperature: 37° C., time: 24 h; strain concentration: 1%
(§8) Medium: Modified Martin Broth Medium

Candida albicans = settings: for zone of inhibition at 5.6 µg/mL: Candida albicans
From the text: as §1, §2, §3
2.1 Preparation of Candida albicans suspension: PHARMACOPOEIA OF THE PEOPLES REPUBLIC OF CHINA, second part, 2005 edition, appendix p 81-84.
as §4, §5, §6
Test method: Double-plate counting method; […] bacteria bed 15 ml to replace the double layers, culture temperature: 37° C., time: 24 h; strain concentration: 1% […]

Candida mycoderma = settings: for zone of inhibition at 5.6 µg/mL: 5.6 μg/ml after conversion; for diameter of the bacteria-inhibition zone, Candida mycoderma 0 h / diameter of the bacteria-inhibition zone, Candida mycoderma 6 h / diameter of the bacteria-inhibition zone, Candida mycoderma 24 h / diameter of the bacteria-inhibition zone, Candida mycoderma 48 h: 2.8 μg/ml after conversion
From the text: as §1, §2, §3
2.3 Preparation of Candida mycoderrna suspension: the method is as same as preparation of Saccharomyces cerevisiae suspension
as §4, §5, §6, §7, §8

[1] = 0 h, serum added (40% defibered sheep serum)
[2] = 0 h, 2.8 μg/ml after conversion, no serum
[3] = 0 h, 2.8 μg/ml after conversion, serum added (40% defibered sheep serum)
[4] = 6 h, 2.8 μg/ml after conversion, no serum
[5] = 24 h, 2.8 μg/ml after conversion, no serum
[6] = 48 h, 2.8 μg/ml after conversion, no serum

| Compound | diameter of the bacteria-inhibition zone, Saccharomyces cerevisiae 0 h (Saccharomyces cerevisiae; 0 h, no serum) | diameter of the bacteria-inhibition zone, Saccharomyces cerevisiae 0 h (Saccharomyces cerevisiae; [1]) | diameter of the bacteria-inhibition zone, Saccharomyces cerevisiae 6 h (Saccharomyces cerevisiae; 6 h, no serum) | diameter of the bacteria-inhibition zone, Saccharomyces cerevisiae 24 h (Saccharomyces cerevisiae; 24 h, no serum) | diameter of the bacteria-inhibition zone, Saccharomyces cerevisiae 48 h (Saccharomyces cerevisiae; 48 h, no serum) | diameter of the bacteria-inhibition zone, Candida albicans 0 h (Candida albicans; [2]) | diameter of the bacteria-inhibition zone, Candida albicans 0 h (Candida albicans; [3]) | diameter of the bacteria-inhibition zone, Candida albicans 6 h (Candida albicans; [4]) | diameter of the bacteria-inhibition zone, Candida albicans 24 h (Candida albicans; [5]) | diameter of the bacteria-inhibition zone, Candida albicans 48 h (Candida albicans; [6]) | diameter of the bacteria-inhibition zone, Candida mycoderma 0 h (Candida mycoderma; 0 h, no serum) | diameter of the bacteria-inhibition zone, Candida mycoderma 0 h (Candida mycoderma; [1]) | diameter of the bacteria-inhibition zone, Candida mycoderma 6 h (Candida mycoderma; 6 h, no serum) | diameter of the bacteria-inhibition zone, Candida mycoderma 24 h (Candida mycoderma; 24 h, no serum) | diameter of the bacteria-inhibition zone, Candida mycoderma 48 h (Candida mycoderma; 48 h, no serum) | also measured |
| --- | --- | --- | --- | --- | --- | --- | --- | --- | --- | --- | --- | --- | --- | --- | --- | --- |
| C[C@@H]1C/C=C/C=C/C=C/C=C/[C@H](O[C@@H]2O[C@H](C)[C@@H](O)[C@H](N)[C@@H]2O)C[C@@H]2O[C@](O)(C[C@@H](O)C[C@H]3O[C@@H]3/C=C/C(=O)O1)C[C@H](O)[C@H]2C(=O)O [Natamycin, natamycin, reference compound] |  |  |  |  |  |  |  |  |  |  |  |  |  |  |  | zone of inhibition at 5.6 µg/mL (Saccharomyces cerevisiae; 0 h, no serum, read-out: diameter of the bacteria-inhibition zone, Saccharomyces cerevisiae 0 h): 14 to 16 mm; zone of inhibition at 5.6 µg/mL (Saccharomyces cerevisiae; 0 h, serum added (40% defibered sheep serum), read-out: diameter of the bacteria-inhibition zone, Saccharomyces cerevisiae 0 h): 12 to 14 mm; zone of inhibition at 5.6 µg/mL (Saccharomyces cerevisiae; 6 h, no serum, read-out: diameter of the bacteria-inhibition zone, Saccharomyces cerevisiae 6 h): 14 to 16 mm; zone of inhibition at 5.6 µg/mL (Saccharomyces cerevisiae; 6 h, serum added (40% defibered sheep serum), read-out: diameter of the bacteria-inhibition zone, Saccharomyces cerevisiae 6 h): 12 to 14 mm; zone of inhibition at 5.6 µg/mL (Saccharomyces cerevisiae; 24 h, no serum, read-out: diameter of the bacteria-inhibition zone, Saccharomyces cerevisiae 24 h): 14 to 16 mm; zone of inhibition at 5.6 µg/mL (Saccharomyces cerevisiae; 24 h, serum added (40% defibered sheep serum), read-out: diameter of the bacteria-inhibition zone, Saccharomyces cerevisiae 24 h): 12 to 14 mm; zone of inhibition at 5.6 µg/mL (Saccharomyces cerevisiae; 48 h, no serum, read-out: diameter of the bacteria-inhibition zone, Saccharomyces cerevisiae 48 h): 14 to 16 mm; zone of inhibition at 5.6 µg/mL (Saccharomyces cerevisiae; 48 h, serum added (40% defibered sheep serum), read-out: diameter of the bacteria-inhibition zone, Saccharomyces cerevisiae 48 h): 12 to 14 mm; diameter of the bacteria-inhibition zone, Candida albicans 0 h (Candida albicans; 0 h, 5.6 μg/ml after conversion, serum added (40% defibered sheep serum)): ++ (9-12 mm: ++); diameter of the bacteria-inhibition zone, Candida albicans 6 h (Candida albicans; 6 h, 5.6 μg/ml after conversion, serum added (40% defibered sheep serum)): ++ (9-12 mm: ++); diameter of the bacteria-inhibition zone, Candida albicans 24 h (Candida albicans; 24 h, 5.6 μg/ml after conversion, serum added (40% defibered sheep serum)): ++ (9-12 mm: ++); diameter of the bacteria-inhibition zone, Candida albicans 48 h (Candida albicans; 48 h, 5.6 μg/ml after conversion, serum added (40% defibered sheep serum)): ++ (9-12 mm: ++); zone of inhibition at 5.6 µg/mL (Candida albicans; 0 h, 5.6 μg/ml after conversion, no serum, read-out: diameter of the bacteria-inhibition zone, Candida albicans 0 h): 9 to 12 mm; zone of inhibition at 5.6 µg/mL (Candida albicans; 6 h, 5.6 μg/ml after conversion, no serum, read-out: diameter of the bacteria-inhibition zone, Candida albicans 6 h): 9 to 12 mm; zone of inhibition at 5.6 µg/mL (Candida albicans; 24 h, 5.6 μg/ml after conversion, no serum, read-out: diameter of the bacteria-inhibition zone, Candida albicans 24 h): 9 to 12 mm; zone of inhibition at 5.6 µg/mL (Candida albicans; 48 h, 5.6 μg/ml after conversion, no serum, read-out: diameter of the bacteria-inhibition zone, Candida albicans 48 h): 9 to 12 mm; zone of inhibition at 5.6 µg/mL (Candida mycoderma; 0 h, no serum, read-out: diameter of the bacteria-inhibition zone, Candida mycoderma 0 h): 12 to 14 mm; zone of inhibition at 5.6 µg/mL (Candida mycoderma; 6 h, no serum, read-out: diameter of the bacteria-inhibition zone, Candida mycoderma 6 h): 12 to 14 mm; zone of inhibition at 5.6 µg/mL (Candida mycoderma; 24 h, no serum, read-out: diameter of the bacteria-inhibition zone, Candida mycoderma 24 h): 12 to 14 mm; zone of inhibition at 5.6 µg/mL (Candida mycoderma; 48 h, no serum, read-out: diameter of the bacteria-inhibition zone, Candida mycoderma 48 h): 12 to 14 mm |
| CC(OC(=O)OC1CCCCC1)OC(=O)C1C(O)CC2(O)CC(O)CC(O)C(O)CCC(O)CC(O)CC(=O)OC(C)C(C)C(O)C(C)C=CC=CC=CC=CC=CC=CC=CC(OC3OC(C)C(O)C(N)C3O)CC1O2 (stereo not drawn) [amphotericin B cyclohexyloxycarbonyloxyethyl ester] | ++ (9-12 mm: ++) | ++ (9-12 mm: ++) | ++ (9-12 mm: ++) | ++ (9-12 mm: ++) | ++ (9-12 mm: ++) | + (7-9 mm: +) | + (7-9 mm: +) | + (7-9 mm: +) | + (7-9 mm: +) | + (7-9 mm: +) | ++ (9-12 mm: ++) | ++ (9-12 mm: ++) | ++ (9-12 mm: ++) | ++ (9-12 mm: ++) | ++ (9-12 mm: ++) | diameter of the bacteria-inhibition zone, Candida albicans 6 h (Candida albicans; 6 h, 2.8 μg/ml after conversion, serum added (40% defibered sheep serum)): ++ (9-12 mm: ++) |
| CCOC(=O)OC(C)OC(=O)[C@H]1[C@@H]2C[C@@H](OC3OC(C)C(O)C(N)C3O)/C=C/C=C/C=C/C=C/C=C/C=C/C=C/[C@H](C)[C@@H](O)[C@@H](C)[C@H](C)OC(=O)C[C@H](O)C[C@H](O)CC[C@@H](O)[C@H](O)C[C@H](O)C[C@](O)(C[C@@H]1O)O2 (stereo partly drawn) [amphotericin B ethoxycarbonyloxyethyl ester] | ++ (9-12 mm: ++) | ++ (9-12 mm: ++) | ++ (9-12 mm: ++) | ++ (9-12 mm: ++) | ++ (9-12 mm: ++) |  |  |  |  |  | + (7-9 mm: +) | + (7-9 mm: +) | + (7-9 mm: +) | + (7-9 mm: +) | + (7-9 mm: +) | diameter of the bacteria-inhibition zone, Candida mycoderma 6 h (Candida mycoderma; 6 h, serum added (40% defibered sheep serum)): ++ (9-12 mm: ++) |
| CC(C)OC(=O)OC(C)OC(=O)C1C(O)CC2(O)CC(O)CC(O)C(O)CCC(O)CC(O)CC(=O)OC(C)C(C)C(O)C(C)C=CC=CC=CC=CC=CC=CC=CC(OC3OC(C)C(O)C(N)C3O)CC1O2 (stereo not drawn) [amphotericin B isopropoxycarbonyloxyethyl ester] | + (7-9 mm: +) | ++ (9-12 mm: ++) | + (7-9 mm: +) | + (7-9 mm: +) | + (7-9 mm: +) | ++ (9-12 mm: ++) | ++ (9-12 mm: ++) | ++ (9-12 mm: ++) | ++ (9-12 mm: ++) | ++ (9-12 mm: ++) | ++ (9-12 mm: ++) | ++ (9-12 mm: ++) | ++ (9-12 mm: ++) | ++ (9-12 mm: ++) | ++ (9-12 mm: ++) |  |
| Cc1oc(=O)oc1COC(=O)C1C(O)CC2(O)CC(O)CC(O)C(O)CCC(O)CC(O)CC(=O)OC(C)C(C)C(O)C(C)C=CC=CC=CC=CC=CC=CC=CC(OC3OC(C)C(O)C(N)C3O)CC1O2 (stereo not drawn) [amphotericin B-5-methyl-1,3-dioxol-2-one-4-methyl ester] | ++ (9-12 mm: ++) | ++ (9-12 mm: ++) | ++ (9-12 mm: ++) | ++ (9-12 mm: ++) | ++ (9-12 mm: ++) | ++ (9-12 mm: ++) | ++ (9-12 mm: ++) | ++ (9-12 mm: ++) | ++ (9-12 mm: ++) | ++ (9-12 mm: ++) | ++ (9-12 mm: ++) | ++ (9-12 mm: ++) | ++ (9-12 mm: ++) | ++ (9-12 mm: ++) | ++ (9-12 mm: ++) |  |
| amphotericin B ethyl acetate | + (7-9 mm: +) | ++ (9-12 mm: ++) | + (7-9 mm: +) | + (7-9 mm: +) | + (7-9 mm: +) |  |  |  |  |  | ++ (9-12 mm: ++) | ++ (9-12 mm: ++) | ++ (9-12 mm: ++) | ++ (9-12 mm: ++) | ++ (9-12 mm: ++) |  |
